Laboratory results from EP2931723B1, “NEW BICYCLIC COMPOUNDS AND THEIR USE AS ANTIBACTERIAL AGENTS AND -LACTAMASE INHIBITORS” (Fedora Pharmaceuticals Inc., priority 2012, dated 2014).
Read-outs that look alike come from different tables or passages of the source.

How the values were obtained:
Type in all cases: cell-based
[1] = tested on: E. coli ATCC 25922; experiment: MIC, antibacterial and synergistic activity; settings: Escherichia coli, ATCC25922; E. coli ATCC 25922 (Wt); substance alone
[2] = tested on: A. baumanii JMI 2659; experiment: MIC, antibacterial and synergistic activity; settings: Acinetobacter baumannii, JMI2659
[3] = tested on: E.coli JMI 4103; experiment: MIC, antibacterial and synergistic activity; settings: Escherichia coli, JMI4103; E.coli JMI 4103 (KPC-2, Tem-1, CMY-Type); substance alone
[4] = tested on: E. coli JMI 4080; experiment: MIC, antibacterial and synergistic activity; settings: Escherichia coli, JMI4080, E. coli JMI 4080 (Tem-10); substance alone
[5] = tested on: E. coli JMI 10768; experiment: MIC, antibacterial and synergistic activity; settings: Escherichia coli, JMI10768; E. coli JMI 10768 (CTX-M15 (Weak ESBL)); substance alone
Procedure: (§1) In the Tables 10 - 12, compounds herein disclosed were tested in combination with various antibiotics against metallo β-lactamase producing bacteria. Table 3: Synergy of the inhibitor Ex. 1 (4 µg/mL) in combination with antibiotics

[6] = tested on: E. coli JMI 2665; experiment: MIC, antibacterial and synergistic activity; settings: Escherichia coli
Procedure: as §1

[7] = tested on: E. coli JMI 2671; experiment: MIC, antibacterial and synergistic activity; settings: Escherichia coli, JMI2671, E. coli JMI 2671 (VIM-19 (Cpase)); substance alone
Procedure: as §1

[8] = tested on: K. pneumo JMI 2699; experiment: MIC, antibacterial and synergistic activity; settings: K. pneumo JMI 2699 (VIM-1, CTX-M3), substance alone
Procedure: as §1

[9] = tested on: K. pneumo JMI 4088; experiment: MIC, antibacterial and synergistic activity; settings: K. pneumo JMI 4088 (KPC-3 (Cpase)); substance alone
Procedure: as §1

[10] = tested on: P. aerug JMI 2686; experiment: MIC, antibacterial and synergistic activity; settings: P. aerug JMI 2686 (KPC-2 (Cpase)); substance alone
Procedure: as §1

[11] = tested on: E. coli JMI 2692; experiment: MIC, antibacterial and synergistic activity; settings: Escherichia coli, JMI2692
Procedure: (§2) In the Tables 10 - 12, compounds herein disclosed were tested in combination with various antibiotics against metallo β-lactamase producing bacteria.

[12] = tested on: K. pneumo JMI 2693; experiment: MIC, antibacterial and synergistic activity; settings: K. pneumo JMI 2693 (NDM-1 (Cpase)); substance alone
Procedure: as §2

[13] = tested on: K. pneumo JMI 2697; experiment: MIC, antibacterial and synergistic activity; settings: K. pneumo JMI 2697 (IMP-4 (Cpase)); substance alone
Procedure: as §2

[14] = tested on: K. pneumo JMI 2681; experiment: MIC, antibacterial and synergistic activity
[15] = tested on: P. aerug JMI 149; experiment: MIC, antibacterial and synergistic activity
[16] = tested on: E. cloacae JMI 36; experiment: MIC, antibacterial and synergistic activity; settings: Enterobacter cloacae, JMI36
[17] = tested on: metallo β-lactamase producing bacteria; experiment: MIC in combination with various antibiotics against metallo β-lactamase producing bacteria (Tables 10-12); settings: agent alone
Procedure: as §2

[18] = tested on: K.pneumo JMI 4109; experiment: MIC, antibacterial and synergistic activity; settings: K.pneumo JMI 4109 (SHV-1, SHV-12); substance alone
[19] = tested on: K. pneumo JMI 2673; experiment: MIC, antibacterial and synergistic activity; settings: K. pneumo JMI 2673 (CTX-M14 (ESBL)); substance alone
[20] = tested on: K. pneumo JMI 2674; experiment: MIC, antibacterial and synergistic activity; settings: K. pneumo JMI 2674 (CTX-M15 (ESBL)); substance alone
[21] = tested on: E. coli JMI 10767; experiment: MIC, antibacterial and synergistic activity; settings: Escherichia coli, JMI10767; E. coli JMI 10767 (Wt); substance alone
[22] = tested on: E. coli JMI 10770; experiment: MIC, antibacterial and synergistic activity; settings: Escherichia coli, JMI10770; E. coli JMI 10770 (CTX-M15 (Hyper ESBL)); substance alone
[23] = tested on: E. coli JMI 11103; experiment: MIC, antibacterial and synergistic activity; settings: Escherichia coli, JMI11103, E. coli JMI 11103 (CTX-M15 (Intermediate ESBL)); substance alone
[24] = tested on: K. pneumo JMI 2674; experiment: MIC, antibacterial and synergistic activity; settings: K. pneumo JMI 2674 (CTX-M15 (ESBL)); substance alone; remark: listed apart in the source
Procedure: as §1

[25] = tested on: K. pneumo JMI 4106; experiment: MIC, antibacterial and synergistic activity; settings: K. pneumo JMI 4106 (KPC-3, TEM-1, SHV-12, SHV-141), substance alone
[26] = tested on: K. pneumo JMI 4088; experiment: MIC, antibacterial and synergistic activity; settings: K. pneumo JMI 4088 (KPC-3 (Cpase)); substance alone; remark: listed apart in the source
[27] = tested on: P. aerug JMI 2686; experiment: MIC, antibacterial and synergistic activity; settings: P. aerug JMI 2686 (KPC-2 (Cpase)); substance alone; remark: listed apart in the source
[28] = Citrobacter freundii, Isolate No 49469, Enzyme NDM-1, unit assumed
[29] = Enterobacter aerogenes, Isolate No 8397, Enzyme VIM-1, unit assumed
[30] = Enterobacter aerogenes, Isolate No 47683, Enzyme VIM-12, unit assumed
[31] = Enterobacter cloacae, Isolate No 4, Enzyme VIM-6, unit assumed
[32] = Enterobacter cloacae, Isolate No 10, Enzyme IMP-26, unit assumed
[33] = Enterobacter cloacae, Isolate No 25, Enzyme IMP-4, unit assumed
[34] = Enterobacter cloacae, Isolate No 1068, Enzyme VIM-2, unit assumed
[35] = Enterobacter cloacae, Isolate No 1471, Enzyme VIM-1, unit assumed
[36] = Enterobacter cloacae, Isolate No 3686, Enzyme IMP-1, unit assumed
[37] = Enterobacter cloacae, Isolate No 53477, Enzyme NDM-1, unit assumed
[38] = Escherichia coli, Isolate No 17, Enzyme NDM-1, unit assumed
[39] = Escherichia coli, Isolate No 49, Enzyme NDM-1, unit assumed
[40] = Escherichia coli, Isolate No 53749, Enzyme NDM-1, unit assumed
[41] = Klebsiella oxytoca, Isolate No 24825, Enzyme IMP-26, unit assumed
[42] = Klebsiella oxytoca, Isolate No 31141, Enzyme VIM-23, unit assumed
[43] = Klebsiella pneumoniae, Isolate No 16, Enzyme VIM-5, unit assumed
[44] = Klebsiella pneumoniae, Isolate No 38, Enzyme NDM-1, unit assumed
[45] = Providencia stuartii, Isolate No 26582, Enzyme VIM-1, unit assumed
[46] = Serratia marcescens, Isolate No 35, Enzyme IMP-4, unit assumed
[47] = Serratia marcescens, Isolate No 36098, Enzyme IMP-19, unit assumed
[48] = E. coli JMI 2692 (NDM-1, TEM-1, CTX-M-15), substance alone, read-out: MIC

## C[C@@H](O)[C@H]1C(=O)N2C(C(=O)O)=C(S[C@@H]3CN[C@H](C(=O)N(C)C)C3)[C@H](C)[C@H]12 [Meropenem, meropenem, reference compound]
[1]
  MIC: 0.06 µg/mL
[2]; A. baumanii JMI 2659 (Ges-14 (Cpase)), substance alone, read-out: MIC
  MIC: 64 µg/mL
[3]
  MIC: 64 µg/mL
[4]
  MIC: ≤ 1 µg/mL
[5]
  MIC: ≤ 1 µg/mL
[6]; JMI2665
  MIC: ≤ 1 µg/mL
[7]
  MIC: 64 µg/mL
[8]; read-out: MIC
  MIC: 32 µg/mL
[9]
  MIC: 512 µg/mL
[10]
  MIC: 512 µg/mL
[11]
  MIC: 256 µg/mL
[12]
  MIC: 8 µg/mL
[13]
  MIC: 64 µg/mL
[14]; K. pneumo JMI 2681 (Oxa-48 (Cpase)), substance alone, read-out: MIC
  MIC: 64 µg/mL
[15]; P. aerug JMI 149 (Bla+++D+), substance alone, read-out: MIC
  MIC: 4 µg/mL
[16]; E. cloacae JMI 36 (P99), substance alone, read-out: MIC
  MIC: ≤ 1 µg/mL
[17]; [28]
  MIC: 16 µg/mL
[17]; [29]
  MIC: 64 µg/mL
[17]; [30]
  MIC: 8 µg/mL
[17]; [31]
  MIC: 2 µg/mL
[17]; [32]
  MIC: 16 µg/mL
[17]; [33]
  MIC: 16 µg/mL
[17]; [34]
  MIC: 2 µg/mL
[17]; [35]
  MIC: 2 µg/mL
[17]; [36]
  MIC: 8 µg/mL
[17]; [37]
  MIC: 32 µg/mL
[17]; [38]
  MIC: 32 µg/mL
[17]; [39]
  MIC: 8 µg/mL
[17]; [40]
  MIC: 64 µg/mL
[17]; [41]
  MIC: 32 µg/mL
[17]; [42]
  MIC: 2 µg/mL
[17]; [43]
  MIC: 8 µg/mL
[17]; [44]
  MIC: 32 µg/mL
[17]; [45]
  MIC: 1 µg/mL
[17]; [46]
  MIC: 8 µg/mL
[17]; [47]
  MIC: 8 µg/mL
[18]
  MIC: ≤ 1 µg/mL
[19]
  MIC: ≤ 1 µg/mL
[20]
  MIC: ≤ 1 µg/mL
[21]
  MIC: ≤ 1 µg/mL
[22]
  MIC: ≤ 1 µg/mL
[23]
  MIC: ≤ 1 µg/mL

## CC(C)(O/N=C(\C(=O)N[C@@H]1C(=O)N2C(C(=O)[O-])=C(C[n+]3ccccc3)CS[C@H]12)c1csc(N)n1)C(=O)O [Ceftazidime, ceftazidime, reference compound]
[1]
  MIC: 0.25 µg/mL
[2]
  MIC: 512 µg/mL
[3]
  MIC: > 512 µg/mL
[4]
  MIC: 64 µg/mL
[5]
  MIC: 8 µg/mL
[6]; JMI2665, E. coli JMI 2665 (CMY-2 (Plasmid Cpase)), substance alone, read-out: MIC
  MIC: 8 µg/mL
[7]
  MIC: 64 µg/mL
[24]
  MIC: 512 µg/mL
[8]; read-out: MIC
  MIC: > 512 µg/mL
[10]
  MIC: 512 µg/mL
[25]; read-out: MIC
  MIC: > 512 µg/mL
[11]; [48]
  MIC: > 512 µg/mL
[12]
  MIC: > 512 µg/mL
[13]
  MIC: > 512 µg/mL
[14]
  MIC: 512 µg/mL
[15]
  MIC: 256 µg/mL
[16]
  MIC: 128 µg/mL
[17]; [28]
  MIC: > 256 µg/mL
[17]; [29]
  MIC: > 256 µg/mL
[17]; [30]
  MIC: 256 µg/mL
[17]; [31]
  MIC: 256 µg/mL
[17]; [32]
  MIC: > 256 µg/mL
[17]; [33]
  MIC: > 256 µg/mL
[17]; [34]
  MIC: 128 µg/mL
[17]; Enterobacter cloacae, Isolate No 1280, Enzyme VIM-5, unit assumed
  MIC: 64 µg/mL
[17]; [35]
  MIC: > 256 µg/mL
[17]; Enterobacter cloacae, Isolate No 1874, Enzyme IMP-21, unit assumed
  MIC: 32 µg/mL
[17]; [36]
  MIC: > 256 µg/mL
[17]; [37]
  MIC: > 256 µg/mL
[17]; Escherichia coli, Isolate No 13, Enzyme IMP-1, unit assumed
  MIC: 256 µg/mL
[17]; [38]
  MIC: > 256 µg/mL
[17]; [39]
  MIC: > 256 µg/mL
[17]; [40]
  MIC: > 256 µg/mL
[17]; [41]
  MIC: > 256 µg/mL
[17]; [42]
  MIC: 128 µg/mL
[17]; [43]
  MIC: > 256 µg/mL
[17]; [44]
  MIC: > 256 µg/mL
[17]; [45]
  MIC: > 256 µg/mL
[17]; [46]
  MIC: 64 µg/mL
[17]; [47]
  MIC: 128 µg/mL
[18]
  MIC: 8 µg/mL
[19]
  MIC: 32 µg/mL
[26]
  MIC: > 512 µg/mL
[21]
  MIC: ≤ 1 µg/mL
[22]
  MIC: 64 µg/mL
[23]
  MIC: 32 µg/mL

## C[C@H]1[C@H](NC(=O)/C(=N\OC(C)(C)C(=O)O)c2csc(N)n2)C(=O)N1S(=O)(=O)O [Aztreonam, aztreonam, reference compound]
[1]
  MIC: 0.25 µg/mL
[3]
  MIC: > 512 µg/mL
[4]
  MIC: 64 µg/mL
[5]
  MIC: 8 µg/mL
[24]
  MIC: 512 µg/mL
[8]
  MIC: 128 µg/mL
[8]; read-out: MIC
  MIC: > 512 µg/mL
[9]
  MIC: 512 µg/mL
[25]
  MIC: 512 µg/mL
[25]; read-out: MIC
  MIC: > 512 µg/mL
[11]; [48]
  MIC: > 512 µg/mL
[12]
  MIC: > 512 µg/mL
[13]
  MIC: > 512 µg/mL
[17]; Escherichia coli, Isolate No 13, Enzyme IMP-1
  MIC: 16
[17]; [46]
  MIC: ≤ 0.12 µg/mL
[20]
  MIC: 32 µg/mL
[26]
  MIC: > 512 µg/mL
[27]
  MIC: > 512 µg/mL
[21]
  MIC: ≤ 1 µg/mL
[22]
  MIC: 64 µg/mL
[23]
  MIC: 32 µg/mL
